In patent publication US9000028B2, “Indole and indazole compounds as an inhibitor of cellular necrosis” (LG Life Sciences Ltd., priority 2007, dated 2015):

Experiments:
[1] = test system: primary hepatocytes isolated from rats; assay: Hepatocyte protective effect against substances deriving hepatocyte toxicity (WST-1 viability); type: cell-based; details: Rattus norvegicus, Hepatocyte, doxorubicin, 24-48 h, read-out: EC50, cell protective effects against doxorubicin in hepatocytes
Procedure, shortened: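 Hepatocytes from two-step collagenase perfusion (≥90% viable) seeded on collagen, pretreated 30 min with compound (5-step 2- or 3-fold dilutions from 30, 10 or 1 uM; 0.2% DMSO), then exposed to hepatotoxic agents. WST-1 absorbance at 440 nm after 24-48 h; EC50 = concentration giving 50% of maximal protection.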

[2] = test system: pancreatic cells (Linm5F); assay: Protective effect when tBHP was treated on pancreatic cells (SRB method); type: cell-based; details: tBHP 400 uM, 5 h
Experimental: (§1) In order to determine the protective effect on pancreatic cells, Linm5F cells, a sort of the beta cells, were distributed into the 96-well plate in the amount of 2×10^4 cells/well, and incubated for 24 h. The Example compounds were serially diluted by 3-fold to the final concentration of 30, 10, 3, 1, 0.3, 0.1 uM, by which each well was treated for 1 h. Cells were treated with tBHP at the final concentration of 400 uM, and further incubated for 5 h. Protective effects were determined using SRB (Sulforhodamine B Protein) method in which total amount of cellular protein is stained. Briefly, cells were incubated for 5 h, 50 uL of 4% formaldehyde solution was added to each well to fix the cells, and stored for about 30 min at room temperature. After discarding the media, each well was washed with distilled water 2-3 times, and the plate was dried in an oven at 50° C. 50 uL of SRB solution was added to each well, and placed for about 30 min at room temperature. After removing SRB solution, the plate was washed with 1% acetic acid solution 2-3 times. After drying the plate in an oven at 50° C., 100 uL of 10 mM Tris was added to elute SRB which was staining the intracellular protein.

[3] = test system: kidney cells (LLC-PK1); assay: Protective effect when tBHP was treated on kidney cells (SRB method); type: cell-based; details: Sus scrofa, tBHP 400 uM, 6 h
Experimental: as §1, with “After drying the plate in an oven at 50° C., 100 uL of 10 mM Tris was added to elute SRB which was staining the intracellular protein.” left out
In order to determine the protective effect on kidney cells, 4×10^4 cells were distributed into each well, and incubated for 24 h. […] Protective effect of each compound was determined using the same SRB method as in Linm5F of above mentioned 2).

[4] = test system: chondrocytes; assay: Protective effect when tBHP was treated on chondrocytes (SRB method); type: cell-based, SD rats; details: Chondrocyte; tBHP 500 uM, 3 h; rat chondrocytes
Experimental: as §1, with “After drying the plate in an oven at 50° C., 100 uL of 10 mM Tris was added to elute SRB which was staining the intracellular protein.” left out
In order to determine the protective effect on chondrocytes, chondrocytes were isolated from 2 hind legs of 16 week-old SD rats (body weight: 450-460 g). […] Protective effect of each compound was determined using the same SRB staining method as in Linm5F of above mentioned 2).

[5] = test system: brain cells (SK-N-MC); assay: Protective effect when tBHP was treated on brain cells (LDH assay); type: cell-based; details: Homo sapiens, tBHP 400 uM, 6 h
Experimental: In order to assess the protective effect on brain cells, 2×10^4 brain cells were distributed into the 96-well plate using DMEM media (Gibco, 10% FBS), and incubated for 24 h. The Example compounds were serially diluted by 3-fold to the final concentration of 30, 10, 3, 1, 0.3, 0.1 uM, by which each well was treated for 1 h. Cells were treated with tBHP at the final concentration of 400 uM, and incubated for 6 h. 50 uL of media was taken from each well to proceed with LDH assay (Promega). In LDH assay, 50 uL of media was mixed with 50 uL of assay solution. After the reaction for 30 min at room temperature, absorbance was measured at 490 nm using SpectraMax (Molecular Device).

Structure (SMILES) | EC50 [1] [nM] | EC50 [2] [nM] | EC50 [3] [nM] | EC50 [4] [nM] | EC50 [5] [nM]
O=S1(=O)CCN(Cc2cc(NCC3CCOCC3)c3[nH]c(-c4ccccc4)cc3c2)CC1 [Example 56, (Tetrahydropyran-4-ylmethyl)-[2-phenyl-5-(1,1-dioxo-thiomorpholin-4-yl)methyl-1H-indol-7-yl]amine] | 130 | ≤ 100 | 660 | ≤ 100 | 
O=C1CN(Cc2cc(NCC3CCOCC3)c3[nH]c(-c4ccccc4)cc3c2)CCN1 [Example 63, (Tetrahydropyran-4-ylmethyl)-[2-phenyl-5-(2-oxo-piperazin-4-yl)methyl-1H-indol-7-yl]amine] | 170 |  |  | ≤ 100 | ≤ 100
